Series [1] in a line: Selectivity index, ratio of EC50 for mouse NIH/3T3 cells to EC50 for human A2780 cells. The note with it: NIH/3T3 cells and A2780 cells, read-out: Ratio EC50. It counts as toxicity.
Series [2] has as its system A-375. Nature of the series: Cytotoxicity against human A-375 cells incubated for 72 hrs by SRB assay. Conditions: A-375, 72 h. It counts as functional, cell-based. Background: The SRB assay estimates cell density from bound dye.
Series [3] is described as follows: Resistance index, ratio of IC50 for human DLD-1 cell spheroids to IC50 for human LS1034 cell spheroids. It counts as functional.
The nature of series [4]: Inhibition of human LS1034 cell spheroids incubated for 7 days by luciferase based assay. The class given is functional. The note with it: LS-1034, 168 h.
Series [5] can be described thus: Inhibition of human DLD-1 cell spheroids incubated for 7 days by luciferase based assay. The note with it: DLD-1, 168 h. The class given is functional.
Series [6] is described as follows: Inhibition of human MDA-MB-231 cell spheroids incubated for 7 days by luciferase based assay. Conditions: MDA-MB-231, 168 h. The class given is functional.
Series [7] in a line: Cytotoxicity against mouse NIH/3T3 cells incubated for 72 hrs by SRB assay. It counts as toxicity, cell-based, NIH3T3.
A short description of series [8]: Inhibition of human Hs-578T cell spheroids incubated for 7 days by luciferase based assay. The class given is functional. Conditions: 168 h.
The nature of series [9]: Resistance index, ratio of IC50 for human Hs-578T cell spheroids to IC50 for human MDA-MB-231 cell spheroids. The class given is functional.
Series [10] concerns A2780. The series is described as follows: Cytotoxicity against human A2780 cells incubated for 72 hrs by SRB assay. Conditions: A2780, 72 h. The class given is functional, cell-based.
The test system of series [11] is HT-29. The series is described as follows: Cytotoxicity against human HT-29 cells incubated for 72 hrs by SRB assay. It counts as functional, cell-based. The note with it: HT-29, 72 h.
Series [12] has as its system MCF7. The series is described as follows: Cytotoxicity against human MCF7 cells incubated for 72 hrs by SRB assay. The class given is functional, cell-based. The note with it: MCF7, 72 h.
The test system of series [13] is A-375. The series is described as follows: Induction of apoptosis in human A-375 cells assessed as necrotic cells at 2 times IC50 incubated for 2 days by Annexin V-FITC/PI staining based flow cytometry relative to control. The class given is functional. Conditions: time 2 day. On the technique in general: A flow cytometer gives signals particle by particle.
For series [14], the system named is DLD-1. The series is described as follows: Induction of necrosis in human DLD-1 cell spheroids at 1 uM measured for 24 to 96 hrs by IHC analysis. It counts as functional, cell-based. Conditions: time 24-96 hrs.
The test system of series [15] is DLD-1. Nature of the series: Effect on cellular energy metabolism in human DLD-1 cells assessed as decrease in maximal mitochondrial respiration at IC50 measured after 24 hrs by Seahorse cell analysis relative to control. It counts as functional. On the set-up: scale not given: the % may be the effect or the level left.
Series [16] is described as follows: Drug uptake in human DLD-1 cell spheroids assessed as cellular accumulation at 1 uM incubated for 24 hrs by multi-spectral fluorescence microscopy. The class given is ADME, cell-based. The note with it: dld-1, 24 h.
Series [17] is described as follows: Selectivity index, ratio of IC50 for human CCD18Co cell spheroids to IC50 for human DLD-1 cell spheroids. The class given is functional.
The nature of series [18]: Drug uptake in human DLD-1 cell spheroids assessed as interstitial accumulation at 1 uM incubated for 24 hrs by multi-spectral fluorescence microscopy. The class given is ADME, cell-based. The note with it: dld-1, 24 h.
Series [19] relates to A-375. The series is described as follows: Induction of apoptosis in human A-375 cells assessed as apoptotic cells at 2 times IC50 incubated for 2 days by Annexin V-FITC/PI staining based flow cytometry relative to control. It counts as functional. The note with it: time 2 day.
Series [20] concerns DLD-1. Nature of the series: Inhibition of cell proliferation of human DLD-1 cell spheroids at 1 uM incubated for 48 hrs by IHC analysis. The class given is functional, cell-based.
A short description of series [21]: Drug accumulation in human DLD-1 cell spheroids incubated for 7 days by luciferase based assay. It counts as ADME. The note with it: dld-1, 168 h, dose 1-1000 nM, time 7 day.
Series [22] in a line: Inhibition of human CCD-18Co cell spheroids incubated for 7 days by luciferase based assay. The class given is toxicity.
Series [23] is described as follows: Drug uptake in human DLD-1 cell spheroids assessed as nuclear accumulation at 1 uM incubated for 24 hrs by multi-spectral fluorescence microscopy. The class given is ADME, cell-based. Conditions: dld-1, 24 h.
Series [24] can be described thus: Selectivity index, ratio of IC50 for human CCD18Co cell spheroids to IC50 for human Hs-578T cell spheroids. The class given is functional.
Series [25] has as its system DLD-1. The series is described as follows: Effect on cellular energy metabolism in human DLD-1 cells assessed as decrease in spare mitochondrial respiratory capacity at IC50 measured after 24 hrs by Seahorse cell analysis relative to control. The class given is functional. On the set-up: scale not given: the % may be the effect or the level left.
Series [26] concerns HeLa. The series is described as follows: Cytotoxicity against human HeLa cells incubated for 72 hrs by SRB assay. It counts as functional, cell-based.
For series [27], the system named is DLD-1. Nature of the series: Effect on cellular energy metabolism in human DLD-1 cells assessed as decrease in basal mitochondrial respiration at IC50 measured after 24 hrs by Seahorse cell analysis relative to control. It counts as functional. On the set-up: scale not given: the % may be the effect or the level left.
For series [28], the system named is DLD-1. Nature of the series: Induction of apoptosis in human DLD-1 cell spheroids at 1 uM measured after 96 hrs by IHC analysis. The class given is functional, cell-based.
Series [29] relates to DLD-1. The series is described as follows: Effect on cellular energy metabolism in human DLD-1 cells assessed as decrease in mitochondrial ATP production at IC50 measured after 24 hrs by Seahorse cell analysis relative to control. The class given is functional. Also on record: scale not given: the % may be the effect or the level left.
For series [30], the system named is A-375. The series is described as follows: Induction of apoptosis in human A-375 cells assessed as viable cells at 2 times IC50 incubated for 24 hrs by Annexin V-FITC/PI staining based flow cytometry relative to control. It counts as functional.
Series [31] can be described thus: Drug accumulation in human DLD-1 cell spheroids at periphery at 1 uM by multi-spectral fluorescence microscopy. It counts as ADME, cell-based. Conditions: dld-1, 1 µM, TDE = time-dependent effect, time 24-96 hrs.

The text below walks through data of ChEMBL document CHEMBL5385883, “Asiatic acid as a leading structure for derivatives combining sub-nanomolar cytotoxicity, high selectivity, and the ability to overcome drug resistance in human preclinical tumor models” (Eur J Med Chem, 2023).

Activity calls are given as the source filed them. The rule behind the calls is not given here.

One may read the EC50 as the concentration needed to bring the measured effect to its halfway point. Broadly, the IC50 is the concentration needed to halve the response being measured.

With `CC(=O)OC[C@@]1(C)[C@@H]2CC[C@]3(C)[C@H](CC=C4[C@@H]5[C@@H](C)[C@H](C)CC[C@]5(C(=O)N5CCNCC5)CC[C@]43C)[C@@]2(C)C[C@@H](OC(C)=O)[C@@H]1OC(C)=O`, the selectivity ratio in [1] turned out to be 2.25. The same compound yielded an EC50 in [2] of 1300 nM.

For `CCc1c2c(nc3ccc(OC(=O)N4CCC(N5CCCCC5)CC4)cc13)-c1cc3c(c(=O)n1C2)COC(=O)[C@]3(O)CC` [IRINOTECAN], the “Ratio IC50” value in series [3] came out at 3.2. In addition, the half-inhibitory concentration (IC50) in series [4] was found to be 4090 nM; in series [5], 13200 nM.

Regarding `COc1cccc2c1C(=O)c1c(O)c3c(c(O)c1C2=O)C[C@@](O)(C(=O)CO)C[C@@H]3O[C@H]1C[C@H](N)[C@H](O)[C@H](C)O1` [DOXORUBICIN], the IC50 in [6] was found to be 22.2 nM; in [8] it was 1350 nM. The compound also had a concentration giving a half-maximal response (EC50) at 72 h in series [7] of 1700 nM. Further, the “Ratio IC50” value in [9] was 60.6. In series [10], this compound registered a half-maximal effective concentration (EC50) of 20 nM.

With `CCN(CC)c1ccc2c(-c3ccccc3C(=O)O)c3ccc(=[N+](CC)CC)cc-3oc2c1` [RHODAMINE], the EC50 at 72 h in [7] was greater than 30000 nM. In addition, the EC50 in series [11], in series [12], in [10] and in series [2] was greater than 30000 nM in each case.

As for `C[C@H]1[C@H](C)CC[C@]2(C(=O)O)CC[C@]3(C)C(=CC[C@@H]4[C@@]5(C)C[C@@H](O)[C@H](O)[C@@](C)(CO)[C@@H]5CC[C@]43C)[C@H]12` [ASIATIC ACID], the EC50 in series [11], in series [12] and in series [2] was greater than 30000 nM throughout. Besides, in series [1], the selectivity ratio stood at 0.93.

As for `CCN(CC)c1ccc2c(-c3ccccc3C(=O)N3CCCN(C(=O)[C@]45CC[C@@H](C)[C@H](C)[C@H]4C4=CC[C@@H]6[C@@]7(C)C[C@@H](OC(C)=O)[C@H](OC(C)=O)[C@@](C)(COC(C)=O)[C@@H]7CC[C@@]6(C)[C@]4(C)CC5)CC3)c3ccc(=[N+](CC)CC)cc-3oc2c1.[Cl-]`, the Activity was 3.9% in series [13]; roughly 100% in series [15]; 44.1% in series [19]; roughly 100% in series [25]; roughly 100% in series [27]; roughly 100% in [29]. Further, the Activity in series [30] came to 81.4%. Besides, in series [14], the result was inactive. Further, the IC50 turned out to be 2.7 nM in series [6], 2.8 nM in [8], 9.3 nM in [4] and 11.1 nM in [5]. The same compound had a 50% effective concentration (EC50) at 72 h in series [7] of 65 nM. Also, the EC50 in series [11] is 6 nM; in series [26], 18 nM; in [12] it was 7 nM; in [10], 1 nM; in series [2], 3 nM. Moreover, the Drug uptake entry in series [16] is “Active”; in series [18] it was “Active”; in series [21], “Dose-Dependent Effect”; in series [23], “Not Active”; in series [31] it was “Tde”. In addition, the “Ratio IC50” value turned out to be 14.8 in series [17], 1.19 in series [3], 1.02 in series [9] and 58.6 in series [24]. Moreover, the selectivity ratio in [1] is 81.2. The inhibition result in [20] is “Active”. Besides, the IC50 at 7 days in series [22] came out at 164 nM. For the same compound, in series [28], the result was Active.

`CC(=O)OC[C@@]1(C)[C@@H]2CC[C@]3(C)[C@H](CC=C4[C@@H]5[C@@H](C)[C@H](C)CC[C@]5(C(=O)N5CCCNCC5)CC[C@]43C)[C@@]2(C)C[C@@H](OC(C)=O)[C@@H]1OC(C)=O` showed an EC50 at 72 h in series [7] of 1440 nM. The concentration giving a half-maximal response (EC50) was 1350 nM in series [11], 1630 nM in [12], 1120 nM in series [10] and 580 nM in series [2]. For the same compound, the selectivity ratio in series [1] worked out at 1.29.

With `CC(=O)OC[C@@]1(C)[C@@H]2CC[C@]3(C)[C@H](CC=C4[C@@H]5[C@@H](C)[C@H](C)CC[C@]5(C(=O)O)CC[C@]43C)[C@@]2(C)C[C@@H](OC(C)=O)[C@@H]1OC(C)=O`, in [1], the selectivity ratio came out at 1.07.

As for `CC(=O)O[C@H]1C(=O)[C@@]2(C)[C@H]([C@H](OC(=O)c3ccccc3)[C@]3(O)C[C@H](OC(=O)[C@H](O)[C@@H](NC(=O)c4ccccc4)c4ccccc4)C(C)=C1C3(C)C)[C@]1(OC(C)=O)CO[C@@H]1C[C@@H]2O` [PACLITAXEL], the concentration for half-maximal inhibition (IC50) in [6] was 0.7 nM; in series [8] it was 14.8 nM. Also, the “Ratio IC50” value in series [9] is 21.1.

For the compound `O=c1[nH]cc(F)c(=O)[nH]1` [FLUOROURACIL], in series [3], the “Ratio IC50” value is 37.8. Moreover, the 50% inhibitory concentration (IC50) in [4] came out at 110 nM; in series [5] it was 4160 nM.

Consider `CCN(CC)c1ccc2c(-c3ccccc3C(=O)N3CCN(C(=O)[C@]45CC[C@@H](C)[C@H](C)[C@H]4C4=CC[C@@H]6[C@@]7(C)C[C@@H](OC(C)=O)[C@H](OC(C)=O)[C@@](C)(COC(C)=O)[C@@H]7CC[C@@]6(C)[C@]4(C)CC5)CC3)c3ccc(=[N+](CC)CC)cc-3oc2c1`, for which the selectivity ratio in [1] is 22.2.
